We go through one compound from publication PMC9371267 (PLoS Biology, 2022).

What all share (format): cell-based
Assay [1] deals with T1, GALR2 H102^3.29A mutant (Homo sapiens, UniProt O43603, H102A).
T1 construct: expressed in transfected cells; host or cells: HEK293A
T1 sequence (O43603 1-387 H102A): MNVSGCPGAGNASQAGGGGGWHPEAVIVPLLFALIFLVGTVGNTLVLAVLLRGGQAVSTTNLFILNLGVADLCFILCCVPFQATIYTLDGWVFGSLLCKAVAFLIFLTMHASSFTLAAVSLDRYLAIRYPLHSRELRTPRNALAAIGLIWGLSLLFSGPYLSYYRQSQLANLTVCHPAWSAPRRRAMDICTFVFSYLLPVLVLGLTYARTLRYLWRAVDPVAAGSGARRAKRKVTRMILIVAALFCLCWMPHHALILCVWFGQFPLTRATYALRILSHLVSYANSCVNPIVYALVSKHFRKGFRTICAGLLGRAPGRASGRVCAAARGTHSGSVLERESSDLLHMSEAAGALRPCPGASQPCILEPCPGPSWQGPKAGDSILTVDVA
As to the kind of experiment: NanoBiT-based Gq activation assay, H102^3.29A. The conditions noted are these: HEK293-A; HEK293A; expression ~WT (1:10); normalized to WT (1:1); mean ± SEM, n = 3; ** p < 0.01 vs expression-matched WT. On the procedure: (§1) After an incubation for 1 day, the transfected cells were harvested, pelleted with centrifugation, and suspended in 2 mL of Hank’s balanced saline solution containing 0.01% bovine serum albumin (BSA fatty acid–free grade, SERVA) and 5 mM HEPES (pH 7.4) (assay buffer). The cell suspension was dispensed in a white 96-well plate at a volume of 80 μl per well and mixed with 20 μl of 50 μM coelenterazine (custom-synthesized by Amadis Chemical) diluted in the assay buffer. After 2-h incubation at room temperature, the plate was measured for baseline luminescence (SpectraMax L, Molecular Devices). […] Kinetics data points from 5 min to 10 min were averaged and normalized to the initial count and used as a G-protein activation index. The G-protein activation signals were fitted to a 4-parameter sigmoidal concentration-response curve (GraphPad Prism8), and pEC50 values (negative logarithmic values of EC50 values) and Span values (“Top”–“Bottom”) were obtained. For individual experiments, we calculated Emax by normalizing Span to the WT GALR2 and ΔpEC50 by subtracting pEC50 of the WT GALR2 performed in parallel. We also calculated Emax/EC50 of GALR2 mutants relative to that of GALR2 WT, a dimensionless parameter known as relative intrinsic activity (RAi) and used its log-transformed value (Log RAi) to denote receptor activity.

The target of assay [2] is T2, GALR2 Y164^4.64×65F mutant (Homo sapiens, UniProt O43603, Y164F).
T2 construct: expressed in transfected cells; host or cells: HEK293A
T2 sequence (O43603 1-387 Y164F): T1 sequence (O43603 1-387 H102A) with A102H, Y164F
As to the kind of experiment: NanoBiT-based Gq activation assay, Y164^4.64×65F. Particulars: HEK293-A; HEK293A; expression ~WT (1:2.5); normalized to WT (1:1); mean ± SEM, n = 3; * p < 0.05 vs expression-matched WT. The protocol:
as §1

The target of assay [3] is T3, GALR2 H176^ECL2A mutant (Homo sapiens, UniProt O43603, H176A).
T3 construct: expressed in transfected cells; host or cells: HEK293A
T3 sequence (O43603 1-387 H176A): T1 sequence (O43603 1-387 H102A) with A102H, H176A
As to the kind of experiment: NanoBiT-based Gq activation assay, H176^ECL2A. Particulars: HEK293-A; HEK293A; expression ~WT (1:1); normalized to WT (1:1); mean ± SEM, n = 3; ns p > 0.05 vs expression-matched WT. On the procedure: as §1

Assay [4] concerns the target T4, GALR2 L255^6.54A mutant (Homo sapiens, UniProt O43603, L255A).
T4 construct: expressed in transfected cells; host or cells: HEK293A
T4 sequence (O43603 1-387 L255A): T1 sequence (O43603 1-387 H102A) with A102H, L255A
As to the kind of experiment: NanoBiT-based Gq activation assay, L255^6.54A. Particulars: HEK293-A. The protocol: as §1

Assay [5] addresses T5, GALR2 R274^7.35×34A mutant (Homo sapiens, UniProt O43603, R274A).
T5 construct: expressed in transfected cells; host or cells: HEK293A
T5 sequence (O43603 1-387 R274A): T1 sequence (O43603 1-387 H102A) with A102H, R274A
As to the kind of experiment: NanoBiT-based Gq activation assay, R274^7.35×34A. The conditions noted are these: HEK293-A. The protocol: as §1

Changes are numbered by the printed parent chain.

As a reminder, the Emax is the greatest response seen or fitted, relative to the assay's reference. For `CC(C)C[C@H](NC(=O)CNC(=O)[C@H](CC(N)=O)NC(=O)[C@H](CCCCN)NC(=O)[C@H](CC(=O)O)NC(=O)[C@H](CO)NC(=O)[C@H](Cc1ccccc1)NC(=O)[C@H](CO)NC(=O)[C@H](CCCNC(=N)N)NC(=O)[C@H](Cc1c[nH]cn1)NC(=O)[C@H](CC(N)=O)NC(=O)CNC(=O)[C@@H](NC(=O)[C@H](C)NC(=O)[C@H](Cc1c[nH]cn1)NC(=O)[C@@H]1CCCN1C(=O)CNC(=O)[C@H](CC(C)C)NC(=O)[C@H](CC(C)C)NC(=O)[C@H](Cc1ccc(O)cc1)NC(=O)CNC(=O)[C@H](C)NC(=O)[C@H](CO)NC(=O)[C@H](CC(N)=O)NC(=O)[C@H](CC(C)C)NC(=O)[C@@H](NC(=O)[C@H](Cc1c[nH]c2ccccc12)NC(=O)CN)[C@@H](C)O)C(C)C)C(=O)N[C@H](C(=O)N[C@@H](CO)C(=O)O)[C@@H](C)O` [galanin], the Emax in assay [1] worked out at 17.4 ± 2.4%; in assay [2], 64.9 ± 2.4%; in assay [3], 116 ± 3.4%; in assay [4], 64.7 ± 1.6%; in assay [5], 74.7 ± 5.9%.
